# According to ChEMBL document CHEMBL4000174, “Synthesis and antitumor activity of novel substituted uracil-1'(N)-acetic acid ester derivatives of 20(S)-camptothecins” (Eur J Med Chem, 2017):
# The source made the active and inactive calls. The calls are words filed in the database; no cut-off is given here.
# Columns and labels:
# [1] = system: A549; test: Cell cycle arrest in human A549 cells assessed as accumulation at G2/M phase at 75 nM after 24 hrs by propidium iodide staining based flow cytometry (reference value: 8.36%); format: functional
# [2] = system: Mus musculus; test: Toxicity in Kunming mouse implanted with mouse H22 cells assessed as body weight at 40 mg/kg, ip administered on day 1 and day 5 (reference value: 32.5 g); format: organism-based; conditions: in vivo
# [3] = system: HCT-8; test: Antiproliferative activity against human HCT8 cells after 96 hrs by MTT assay; format: functional, cell-based; conditions: HCT-8, 96 h
# [4] = system: Mus musculus; test: Toxicity in Kunming mouse implanted with mouse H22 cell assessed as survival at 40 mg/kg, ip administered on day 1 and day 5; format: organism-based; conditions: in vivo
# [5] = system: Mus musculus; test: Toxicity in Kunming mouse implanted with mouse H22 cells assessed as survival at 60 mg/kg, ip administered twice; format: organism-based; conditions: in vivo
# [6] = system: Mus musculus; test: Antitumor activity in BALB/c nude mouse xenografted with human Bel7402 cells assessed as tumor volume at 30 mg/kg, ip administered once in a week for two weeks starting from 6 days post tumor transplantation measured every 3 days for 21 days (reference value: 511 mm3); conditions: in vivo, 504 h
# [7] = system: Mus musculus; test: Antitumor activity in BALB/c nude mouse xenografted with human Bel7402 cells assessed as tumor volume at 60 mg/kg, ip administered once in a week for two weeks starting from 6 days post tumor transplantation measured every 3 days for 21 days (reference value: […]); conditions: in vivo, 504 h
# [8] = system: BGC-823; test: Antitumor activity against human BGC823 cells xenografted in BALB/c nude mouse assessed as tumor volume at 60 mg/kg, ip administered once in a week for two weeks starting from 6 days post tumor transplantation measured 27 to 30 days post tumor transplantation relative to control; format: functional
# [9] = system: BGC-823; test: Antitumor activity against human BGC823 cells xenografted in BALB/c nude mouse assessed as tumor growth inhibition at 30 mg/kg, ip administered once in a week for two weeks starting from 6 days post tumor transplantation measured 27 to 30 days post tumor transplantation relative to control; format: functional; conditions: BGC-823, ip, read-out: TGI
# [10] = system: Mus musculus; test: Toxicity in BALB/c nude mouse xenografted with human BGC823 cells assessed as body weight at 30 mg/kg, ip administered once in a week for two weeks starting from 6 days post tumor transplantation and measured every 3 days during compound dosing for 15 days (reference value: 23.6 g); format: organism-based; conditions: in vivo, 360 h
# [11] = system: A549; test: Cell cycle arrest in human A549 cells assessed as accumulation at S phase at 25 nM after 24 hrs by propidium iodide staining based flow cytometry (reference value: 32.80%); format: functional
# [12] = system: A549; test: Induction of apoptosis in human A549 cells assessed as viable cells at 25 nM after 24 hrs by Annexin V-FITC/propidium iodide staining based flow cytometry (reference value: 89.41%); format: functional; conditions: A549, 24 h, read-out: Activity
# [13] = system: A549; test: Induction of apoptosis in human A549 cells assessed as increase in cleaved caspase-3 level at 8 to 75 nM by Western blot method; format: functional, cell-based
# [14] = system: A549; test: Induction of apoptosis in human A549 cells assessed as caspase-3 level at 8 to 75 nM by Western blot method; format: functional, cell-based
# [15] = system: H22; test: Antitumor activity against mouse H22 cells implanted in Kunming mouse assessed as tumor growth inhibition at 100 mg/kg, ip administered once relative to control; format: functional; conditions: read-out: TGI
# [16] = system: A549; test: Antiproliferative activity against human A549 cells after 96 hrs by MTT assay; format: functional, cell-based; conditions: A549, 96 h
# [17] = system: Mus musculus; test: Toxicity in BALB/c nude mouse xenografted with human Bel7402 cells assessed as body weight at 60 mg/kg, ip aadministered once in a week for two weeks starting from 6 days post tumor transplantation measured every 3 days for 21 days (reference value: 14.5 g); format: organism-based; conditions: in vivo, 504 h
# [18] = system: BGC-823; test: Antitumor activity against human BGC823 cells xenografted in BALB/c nude mouse assessed as tumor growth inhibition at 60 mg/kg, ip administered once in a week for two weeks starting from 6 days post tumor transplantation measured 27 to 30 days post tumor transplantation relative to control; format: functional; conditions: BGC-823, ip, read-out: TGI
# [19] = system: Mus musculus; test: Toxicity in Kunming mouse implanted with mouse H22 cells assessed as body weight at 100 mg/kg, ip administered once (reference value: 31.1 g); format: organism-based; conditions: in vivo
# [20] = system: A549; test: Induction of apoptosis in human A549 cells assessed as necrotic cells at 8 nM after 24 hrs by Annexin V-FITC/propidium iodide staining based flow cytometry (reference value: 7.62%); format: functional
# [21] = system: A549; test: Induction of apoptosis in human A549 cells assessed as membrane blebbing after 24 hrs by phase contrast microscopy; format: functional, cell-based
# [22] = system: Bel-7402; test: Antiproliferative activity against human Bel7402 cells after 96 hrs by MTT assay; format: functional, cell-based; conditions: Bel-7402, 96 h
# [23] = system: Escherichia coli; test: Inhibition of Escherichia coli topoisomerase 1-mediated relaxation of supercoiled Pcmv-6 plasmid DNA at 30 to 50 uM after 30 mins by ethidium bromide staining based agarose gel electrophoretic analysis
# [24] = system: Bel-7402; test: Antitumor activity against human Bel7402 cells xenografted in BALB/c nude mouse assessed as tumor growth inhibition at 30 mg/kg, ip administered once in a week for two weeks starting from 6 days post tumor transplantation measured 27 to 30 days post tumor transplantation relative to control; format: functional; conditions: Bel-7402, ip, read-out: TGI
# [25] = system: BGC-823; test: Antitumor activity against human BGC823 cells xenografted in BALB/c nude mouse assessed as tumor volume at 30 mg/kg, ip administered once in a week for two weeks starting from 6 days post tumor transplantation measured 27 to 30 days post tumor transplantation relative to control; format: functional
# [26] = system: Bel-7402; test: Antitumor activity against human Bel7402 cells xenografted in BALB/c nude mouse assessed as tumor volume at 60 mg/kg, ip administered once in a week for two weeks starting from 6 days post tumor transplantation measured 27 to 30 days post tumor transplantation relative to control; format: functional
# [27] = system: Mus musculus; test: Toxicity in BALB/c nude mouse xenografted with human BGC823 cells assessed as mouse survival at 60 mg/kg, ip administered once in a week for two weeks starting from 6 days post tumor transplantation; format: organism-based; conditions: in vivo, 144 h
# [28] = system: Mus musculus; test: Toxicity in BALB/c nude mouse xenografted with human BGC823 cells assessed as tumor volume at 60 mg/kg, ip administered once in a week for two weeks starting from 6 days post tumor transplantation and measured every 3 days during compound dosing for 15 days (reference value: […]); conditions: in vivo, 360 h
# [29] = system: A549; test: Induction of apoptosis in human A549 cells assessed as early apoptotic cells at 75 nM after 24 hrs by Annexin V-FITC/propidium iodide staining based flow cytometry (reference value: 0.50%); format: functional
# [30] = system: A549; test: Induction of apoptosis in human A549 cells assessed as early apoptotic cells at 25 nM after 24 hrs by Annexin V-FITC/propidium iodide staining based flow cytometry (reference value: 0.50%); format: functional
# [31] = system: A549; test: Induction of apoptosis in human A549 cells assessed as necrotic cells at 25 nM after 24 hrs by Annexin V-FITC/propidium iodide staining based flow cytometry (reference value: 7.62%); format: functional
# [32] = system: A549; test: Induction of apoptosis in human A549 cells assessed as viable cells at 8 nM after 24 hrs by Annexin V-FITC/propidium iodide staining based flow cytometry (reference value: 89.41%); format: functional; conditions: A549, 24 h, read-out: Activity
smiles,measurement,setting,value
CCc1c2c(nc3ccccc13)-c1cc3c(c(=O)n1C2)COC(=O)[C@@]3(CC)OC(=O)Cn1cc(F)c(=O)[nH]c1=O,Activity,[1],67.07%
same,Activity,[2],27.3 g
same,IC50,[3],7 nM
same,Activity,[4],Non-Toxic
same,Activity,[5],Non-Toxic
same,tumor volume,[6],231 mm³
same,tumor volume,[7],127 mm³
same,T/C,[8],5.54%
same,inhibition in vivo at 30 mg/kg,[9],89.7%
same,Activity,[10],19.1 g
same,Activity,[11],21.17%
same,viability at 0.025 µM,[12],53.4%
same,Activity,[13],Active
same,Activity,[14],Active
same,inhibition in vivo at 100 mg/kg,[15],39.1%
same,IC50,[16],27 nM
same,Activity,[17],Non-Toxic
same,inhibition in vivo at 60 mg/kg,[18],96%
same,Activity,[19],29.8 g
same,Activity,[20],3.74%
same,Activity,[21],Dose-dependent effect
same,IC50,[22],14 nM
same,inhibition,[23],Active
same,inhibition in vivo at 30 mg/kg,[24],62.6%
same,T/C,[25],12.65%
same,T/C,[26],24.53%
same,Activity,[27],Non-Toxic
same,tumor volume,[28],143 mm³
same,Activity,[29],23.7%
same,Activity,[30],10.07%
same,Activity,[31],9.9%
same,viability at 0.008 µM,[32],80.2%
